Measured values reported in patent US20260285850A1, “SUBSTITUTED OXAZOLIDINONES AND IMIDAZOLINONES AS HERBICIDES” (FMC CORPORATION, priority 2023, published 2026).

Key:
Format in all cases: in vivo
[1] = system: galium (catchweed bedstraw, Galium aparine); assay: Test A postemergence application, visual injury rating 0-100; details: Postemergence
How it was run: (§1)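 Seeds sown in loam-sand blend got a preemergence directed soil spray, or emerged plants (2-10 cm, one- to two-leaf) got a postemergence spray, of compound in non-phytotoxic solvent with surfactant. After 10 days in greenhouse, injury rated visually versus untreated controls on a 0 (no effect) to 100 (complete control) scale.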

[2] = system: horseweed (Erigeron canadensis); assay: as above; details: Postemergence
How it was run: as §1

soybean (Glycine max) [3] = assay: as above; details: Postemergence
How it was run: as §1

kochia (Bassia scoparia) [4] = assay: as above; details: Postemergence
How it was run: as §1

[5] = system: palmer (palmer amaranth, palmer pigweed, Amaranthus palmeri); assay: as above; details: Postemergence
How it was run: as §1

[6] = system: green foxtail (Setaria viridis); assay: as above; details: Postemergence
How it was run: as §1

[7] = system: barnyardgrass (Echinochloa crus-galli); assay: as above; details: Postemergence
How it was run: as §1

[8] = system: ragweed (common ragweed, Ambrosia artemisiifolia); assay: as above; details: Postemergence
How it was run: as §1

[9] = system: ryegrass, Italian (italian ryegrass, Lolium multiflorum); assay: as above; details: Postemergence
How it was run: as §1

[10] = system: oat, wild (wild oat, Avena fatua); assay: as above; details: Postemergence
How it was run: as §1

[11] = system: wheat (Triticum aestivum); assay: as above; details: Postemergence
How it was run: as §1

corn (Zea mays) [12] = assay: as above; details: Postemergence
How it was run: as §1

[13] = system: blackgrass (Alopecurus myosuroides); assay: as above; details: Postemergence
How it was run: as §1

soybean (Glycine max) [14] = assay: Test A preemergence soil spray, visual injury rating 0-100; details: 10 days, 0 = no effect, 100 = complete control
How it was run: as §1

kochia (Bassia scoparia) [15] = assay: as above; details: 10 days, 0 = no effect, 100 = complete control
How it was run: as §1

[16] = system: palmer (palmer amaranth, palmer pigweed, Amaranthus palmeri); assay: as above; details: 10 days, 0 = no effect, 100 = complete control
How it was run: as §1

[17] = system: green foxtail (Setaria viridis); assay: as above; details: 10 days, 0 = no effect, 100 = complete control
How it was run: as §1

[18] = system: barnyardgrass (Echinochloa crus-galli); assay: as above; details: 10 days, 0 = no effect, 100 = complete control
How it was run: as §1

[19] = system: ragweed (common ragweed, Ambrosia artemisiifolia); assay: as above; details: 10 days, 0 = no effect, 100 = complete control
How it was run: as §1

[20] = system: ryegrass, Italian (italian ryegrass, Lolium multiflorum); assay: as above; details: 10 days, 0 = no effect, 100 = complete control
How it was run: as §1

[21] = system: oat, wild (wild oat, Avena fatua); assay: as above; details: 10 days, 0 = no effect, 100 = complete control
How it was run: as §1

[22] = system: wheat (Triticum aestivum); assay: as above; details: 10 days, 0 = no effect, 100 = complete control
How it was run: as §1

corn (Zea mays) [23] = assay: as above; details: 10 days, 0 = no effect, 100 = complete control
How it was run: as §1

[24] = system: blackgrass (Alopecurus myosuroides); assay: as above; details: 10 days, 0 = no effect, 100 = complete control
How it was run: as §1

[25] = system: ducksalad (Heteranthera limosa); assay: Test B flooded paddy test, visual plant response rating 0-100; details: 250 g ai/ha, Flood, applied to paddy water, evaluated after 13 days
How it was run: (§2)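 Compounds applied to standing paddy water (3 cm above soil, maintained for the test duration) on 2-leaf-stage plants; visual rating vs controls at 13 days, greenhouse.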

rice (Oryza sativa) = assay: as above; details: 250 g ai/ha, Flood, applied to paddy water, evaluated after 13 days
How it was run: as §2

[26] = system: sedge, umbrella (small-flower umbrella sedge, Cyperus difformis); assay: as above; details: 250 g ai/ha, Flood, applied to paddy water, evaluated after 13 days
How it was run: as §2

[27] = system: barnyardgrass (Echinochloa crusgalli); assay: as above; details: 250 g ai/ha, Flood, applied to paddy water, evaluated after 13 days
How it was run: as §2

[28] = 31 g ai/ha, greenhouse 10 days, 0 no effect, 100 complete control
[29] = 125 g ai/ha, 10 days, 0 is no effect, 100 is complete control

CC1(C(=O)NC2C=CC(C(=O)OCC(F)(F)F)C2)CN(c2cc(Cl)cc(Cl)c2)C(=O)O1 (stereo not shown) [Compound 64]
90: Soybean plant response rating (0 to 100 scale) (soybean (Glycine max) [3]; [29]) | Amaranth, Palmer / Pigweed, Palmer plant response rating (0 to 100 scale) [5, 28] | Amaranth, Palmer / Pigweed, Palmer plant response rating (0 to 100 scale) [5, 29] | Foxtail, Green plant response rating (0 to 100 scale) [6, 28] | Foxtail, Green plant response rating (0 to 100 scale) [6, 29] | Ryegrass, Italian plant response rating (0 to 100 scale) [9, 29] | Oat, Wild plant response rating (0 to 100 scale) [10, 28] | Oat, Wild plant response rating (0 to 100 scale) [10, 29] | Wheat plant response rating (0 to 100 scale) [11, 28] | Wheat plant response rating (0 to 100 scale) [11, 29] | Corn plant response rating (0 to 100 scale) (corn (Zea mays) [12]; [28]) | Blackgrass plant response rating (0 to 100 scale) [13, 28] | Blackgrass plant response rating (0 to 100 scale) [13, 29] | Kochia plant response rating (0 to 100 scale) (kochia (Bassia scoparia) [15]; 125 g ai/ha) | Foxtail, Green plant response rating (0 to 100 scale) ([17]; 125 g ai/ha) | Barnyardgrass plant response rating (0 to 100 scale) ([18]; 125 g ai/ha) | Ryegrass, Italian plant response rating (0 to 100 scale) ([20]; 125 g ai/ha) | Wheat plant response rating (0 to 100 scale) ([22]; 125 g ai/ha) | Plant response rating, Ducksalad (0 to 100 scale, 0 is no effect and 100 is complete control) [25]
40: Soybean plant response rating (0 to 100 scale) (soybean (Glycine max) [14]; 125 g ai/ha)
100: Barnyardgrass plant response rating (0 to 100 scale) [7, 28] | Barnyardgrass plant response rating (0 to 100 scale) [7, 29] | Corn plant response rating (0 to 100 scale) (corn (Zea mays) [12]; [29]) | Amaranth, Palmer plant response rating (0-100) ([16]; 31 g ai/ha) | Amaranth, Palmer plant response rating (0 to 100 scale) ([16]; 125 g ai/ha)
60: Wheat plant response rating (0-100) ([22]; 31 g ai/ha)
0: Soybean plant response rating (0-100) (soybean (Glycine max) [14]; 31 g ai/ha) | Ragweed plant response rating (0-100) ([19]; 31 g ai/ha) | Corn plant response rating (0-100) (corn (Zea mays) [23]; 31 g ai/ha)
75: Plant response rating, Sedge, Umbrella (0 to 100 scale, 0 is no effect and 100 is complete control) [26]
15: Plant response rating, Rice (0 to 100 scale, 0 is no effect and 100 is complete control) (rice (Oryza sativa))
80: Galium plant response rating (0 to 100 scale) [1, 28] | Galium plant response rating (0 to 100 scale) [1, 29] | Horseweed plant response rating (0 to 100 scale) [2, 29] | Soybean plant response rating (0 to 100 scale) (soybean (Glycine max) [3]; [28]) | Kochia plant response rating (0 to 100 scale) (kochia (Bassia scoparia) [4]; [28]) | Kochia plant response rating (0 to 100 scale) (kochia (Bassia scoparia) [4]; [29]) | Ragweed plant response rating (0 to 100 scale) [8, 29] | Ryegrass, Italian plant response rating (0 to 100 scale) [9, 28] | Barnyardgrass plant response rating (0-100) ([18]; 31 g ai/ha) | Ragweed plant response rating (0 to 100 scale) ([19]; 125 g ai/ha) | Corn plant response rating (0 to 100 scale) (corn (Zea mays) [23]; 125 g ai/ha)
50: Horseweed plant response rating (0 to 100 scale) [2, 28] | Ragweed plant response rating (0 to 100 scale) [8, 28] | Kochia plant response rating (0-100) (kochia (Bassia scoparia) [15]; 31 g ai/ha) | Ryegrass, Italian plant response rating (0-100) ([20]; 31 g ai/ha) | Oat, Wild plant response rating (0 to 100 scale) ([21]; 125 g ai/ha) | Plant response rating, Barnyardgrass (0 to 100 scale, 0 is no effect and 100 is complete control) [27]
70: Foxtail, Green plant response rating (0-100) ([17]; 31 g ai/ha) | Blackgrass plant response rating (0 to 100 scale) ([24]; 125 g ai/ha)
20: Oat, Wild plant response rating (0-100) ([21]; 31 g ai/ha) | Blackgrass plant response rating (0-100) ([24]; 31 g ai/ha)
